Numbers after ± are expanded uncertainties.
Columns and labels:
[1] = for Normal melting temperature: DTA
[2] = Molar enthalpy of transition or fusion; conditions: DSC

Compound | Normal melting temperature ([1]; Crystal) [°C] | Molar enthalpy of transition or fusion ([2]; Crystal) [kcal/mol] | Normal melting temperature ([1]; Crystal 1) [°C] | Triple point temperature ([1]; Crystal 2, DSC) [K] | Molar enthalpy of transition or fusion ([2]; Crystal 1) [kcal/mol] | Molar enthalpy of transition or fusion ([2]; Crystal 2) [kcal/mol]
CC/C=C\C/C=C\C/C=C\CCCCCCCC(=O)O [all-cis-9,12,15-octadecatrienoic acid] | -10.90 ± 0.4 | 6.99 ± 0.359 |  |  |  | 
CCCCCCCCCCCCCCCC(=O)O [hexadecanoic acid] | 63.10 ± 0.4 | 12.9 ± 0.645 |  |  |  | 
CCCCCCCC/C=C\CCCCCCCC(=O)O [(Z)-9-octadecenoic acid] |  |  | 13.70 ± 0.4 | 268.95 ± 0.8 | 8.99 ± 0.454 | 1.87 ± 0.1
CCCCC/C=C\C/C=C\CCCCCCCC(=O)O [(Z,Z)-9,12-octadecadienoic acid] | -5.40 ± 0.4 | 7.46 ± 0.382 |  |  |  | 
CCCCCCCCCCCCCCCCCC(=O)O [octadecanoic acid] | 70.60 ± 0.4 | 15.1 ± 0.741 |  |  |  | 

— the NIST ThermoML archive (doi:10.1016/j.tca.2016.02.008)
